In patent US20230398233A1, “OCULAR ANTIBODY-DRUG CONJUGATES” (ADS THERAPEUTICS LLC, priority 2020, published 2023):

Assay: Hydrolysis in water control (phosphate buffer)
Conditions: water control (method: phosphate buffer), 37° C., 0-72 h
Experimental: The 2 μL working solution of either the test compound or the control compound was added and mixed. The samples were incubated at 37° C. and the reaction was stopped by adding 200 μL of quenching solution at 0, 1, 4, 8, 12, 24, 48 and 72 and vortexed vigorously for −1 min. The solution was then centrifuged at 4,000 rpm at 4° C. for 15 min. The 100 μL of the supernatant was removed and mixed with 100 μL distilled water for LC-MS/MS analysis. The 10 μL standard curve working solution was spiked to 190 μL phosphate solution, The 200 μL of quenching solution was added to each standard curve wells. The blank sample was prepared by adding 2 μL of MeOH/DMSO solvent to replace the working solution. The double blank samples was prepared by adding 2 μL of MeOH/DMSO solvent to replace the working solution and by quenching the matrix with acetonitrile/MeOH.

Substance: mPEG-PrA-Dexa [Compound 2]
- T ½ in water control: No hydrolysis
